According to patent US8263601B2, “Deuterium substituted xanthine derivatives” (CoNCERT Pharmaceuticals, Inc., priority 2009, dated 2012):
Read-outs that look alike come from different tables or passages of the source.

Key:
[1] = design: species or system beagle dogs; conditions: dog, in vivo, po
Experimental: Example 34a was repeated with additional monitoring of the pentoxifylline and Compound 409 metabolites. In this experiment Compound 409 and pentoxifylline were dissolved separately in saline to a concentration of 4.4 and 4 mg/mL respectively. A 1:1 (v/v) mixture of the two solutions was prepared to yield a solution having a final concentration of 2.2 mg/mL of Compound 409 and 2 mg/mL pentoxifylline. Post-dosing data analysis included adjustments to account for the 10% difference in dosing concentration between compound 409 and pentoxifylline.
Four beagle dogs (2-3 years of age, and weighed 5 to 8 kg) were fasted overnight and then orally dosed via gavage with 2.75 mg/kg Compound 409 and 2.5 mg/kg pentoxifylline using the mixture described above. Blood samples (approximately 1 mL) were collected via femoral vein at 0 min (pre-dose), 5 min, 15 min, 30 min, 45 min, 1 hr, 1.5 hr, 2 hr, 3 hr, 4 hr, and 6 hr post-dose. Blood was stored on ice prior to centrifugation to obtain plasma samples. Centrifugation took place within 15 minutes of blood collection to harvest plasma (maximum volume). The plasma was decanted immediately and frozen/stored at −20° C. until analysis.
Plasma samples were analyzed by LC-MS/MS for the presence of the administered compound and its corresponding M1 metabolite:
The results from one of the four dogs (Dog H, FIG. 1b) were inconsistent with that of the other three. […] It was concluded that this dog was most likely improperly gavaged and that the compounds were probably administered through the trachea, rather than into the GI tract as would have been desired. Accordingly, the data from this dog was excluded from the analyses.

[2] = Stability of compounds in rat whole blood (Example 35); format: in vitro ADME; conditions: 5 μM, 37° C.; for Keto-compound (pentoxifylline or Compound 409) formed from M-1 alcohol: 2 hours, FIG. 3
Experimental: This study was performed to evaluate the stability of the title compounds in rat whole blood. Because the ketone (or keto-compound; either pentoxifylline or 409) and its corresponding M-1 alcohol metabolite interconvert, levels of these components were measured after either the keto-compound was added to the blood or the M-1 was added. In other words, in some tests the keto-compound was the starting test compound and in other tests an M-1 metabolite was the starting test compound.
Fresh rat whole blood was obtained from ViviSource Laboratories, Waltham, Mass. Stock solutions (7.5 millimolar (mM)) of test compounds were prepared in dimethyl sulfoxide (DMSO). The 7.5 mM stock solutions were diluted to 500 micromolar (μM) in acetonitrile (ACN). To 990 microliters (μL) of blood pre-warmed to 37° C. for 7 minutes was added 10 μl, of 500 μM test compound to a final concentration of 5 μM. The test compounds were pentoxifylline, (S)-M1 metabolite of pentoxifylline, (R)-M1 metabolite of pentoxifylline, Compound 409, Compound 435(S), and Compound 435(R). The latter two test compounds are deuterated (S)-M1 and (R)-M1 metabolites, respectively, of Compound 409. The reaction mixture was incubated at 37° C. Aliquots (50 μL) were removed at 0 min, 5 min, 15 min, 30 min, 1 hour and 2 hours following the addition of test compound and added to 96-well plates containing 150 μL of ice cold acetonitrile with an internal standard to stop the reaction. The plates were stored at −20° C. for 20 minutes after which 100 μL of 50% acetonitrile/water was added to the wells of the plate prior to centrifugation to pellet precipitated proteins. A 200-μL aliquot of each supernatant was transferred to another 96-well plate and analyzed by LC-MS/MS using an Applied Bio-systems API 4000 mass spectrometer for amounts of the administered compound and its specific metabolite listed in Table 11 below.
The results of this study are depicted in FIGS. 2 and 3.

in vivo = experiment: in vivo; design: species or system male beagle dogs; conditions: male, beagle, dog, po
Experimental: Metabolism of the title compounds were studied following oral administration to male beagle dogs. Blood samples were removed from dosed dogs at various time points and plasma isolated therefrom. The plasma samples were used for the determination of plasma drug levels by LC-MS/MS (liquid chromatography with tandem mass spectrometry) for estimating pharmacokinetic parameters.
Compound 409 and pentoxifylline were dissolved separately in saline to a concentration of 4 mg/mL. A 1:1 (v/v) mixture of the two solutions was prepared to yield a solution having a final concentration of 2 mg/mL of both Compound 409 and pentoxifylline.
Two male beagle dogs were fasted overnight and then orally dosed via gavage with 2.5 mg/kg of Compound 409 and pentoxifylline using the mixture described above. Blood samples (1.5-2 mL) were collected via the femoral vein at 0 min (pre-dose), 15 min, 30 min, 45 min, 1 hr, 1.5 hr, 2 hr, 3 hr, 4 hr, 6 hr, 8 hr, 10 hr, 12 hr, 16 hr and 24 hr post-dose. Blood was stored on ice prior to centrifugation to obtain plasma samples. Centrifugation took place within 1 hour of blood collection to harvest plasma (maximum volume). The plasma was decanted immediately and frozen/stored at −70° C. until analysis.

[3] = Compound stability in human liver microsomes (Example 36); format: in vitro ADME; conditions: human liver microsomes 2.0 mg/mL, 5 μM, NADPH, 30 minutes, FIG. 5 columns A and B
Experimental: Example 36 is similar to Example 35 in design, except that human liver microsomes were used instead of rat whole blood to study the metabolism of the compounds.
Human liver microsomes (20 mg/mL) were obtained from Xenotech, LLC (Lenexa, Kans.). β-nicotinamide adenine dinucleotide phosphate, reduced form (NADPH), magnesium chloride (MgCl2), and dimethyl sulfoxide (DMSO) were purchased from Sigma-Aldrich.
Stock solutions containing 7.5 mM of test compounds (pentoxifylline, (S)-M1 metabolite, (R)-M1 metabolite, Compound 409, Compound 435(S), and Compound 435(R)) were prepared in DMSO. The 7.5-mM stock solutions were diluted to 250 μM in acetonitrile (ACN). The human liver microsomes were diluted to 2.5 mg/mL in 0.1 M potassium phosphate buffer, pH 7.4, containing 3 mM MgCl2. The diluted microsomes were added to wells of a 96-well deep-well polypropylene plate in triplicate. 10 μL of the 250 μM test compound was added to the microsomes and the mixture was pre-warmed to 37° C. for 10 minutes. Reactions were initiated by addition of pre-warmed NADPH solution. The final reaction volume was 0.5 mL and contained 2.0 mg/mL human liver microsomes, 5 μM test compound, and 2 mM NADPH in 0.1M potassium phosphate buffer, pH 7.4, and 3 mM MgCl2. The reaction mixtures were incubated at 37° C., and 50-μL aliquots were removed at 0, 5, 10, 20, and 30 minutes and added to shallow-well 96-well plates which contained 50 μL of ice-cold acetonitrile with internal standard to stop the reactions. The plates were stored at 4° C. for 20 minutes after which 100 μL of water was added to the wells of the plate before centrifugation to pellet precipitated proteins. Supernatants were transferred to another 96-well plate and analyzed for the amount of the administered compound and its specific metabolite (listed in Table 11 above) by LC-MS/MS using an Applied Bio-systems API 4000 mass spectrometer.
The results of this study are depicted in FIGS. 4 and 5. […]

[4] = design: species or system male beagle dogs; conditions: male, beagle, dog, in vivo, po
Experimental: This study was similar to those described in Examples 34a and 34b, except that Compound 413 was evaluated. Four male beagle dogs were orally dosed by gavage with a mixture containing 2 mg/mL each of pentoxifylline and Compound 413 in saline. Blood samples were taken as in Example 34b.

[2H]c1nc2c(c(=O)n(CCCC([2H])([2H])C(O)C([2H])([2H])[2H])c(=O)n2C)n1C([2H])([2H])[2H] (racemic) [Compound 419, (±)-8-d1-1-(4,4,6,6,6-d5-5-Hydroxyhexyl)-3-methyl-7-(methyl-d3)-1H-purine-2,6(3H,7H)-dione]
Overall systemic exposure to M1 metabolite compared to M1 following dosing of pentoxifylline [1]: greater

C[C@@H](O)CCCCn1c(=O)c2c(ncn2C)n(C)c1=O [(R)-M1, reference compound]
Keto-compound (pentoxifylline or Compound 409) formed from M-1 alcohol [2]: No metabolism of (R)-M1 to pentoxifylline was detected

[2H]c1nc2c(c(=O)n(CCCC([2H])([2H])C(=O)C([2H])([2H])[2H])c(=O)n2C)n1C([2H])([2H])[2H] [Compound 409, 8-d1-3-methyl-7-(methyl-d3)-1-(6-d3-4-d2-5-oxohexyl)-1H-purine-2,6(3H,7H)-dione]
% Difference in Ave. AUC (deuterated vs nondeuterated species) ([1]; beagle): +97%
% Difference in Ave. Cmax (deuterated vs nondeuterated species) ([1]; beagle): +80%
Clearance from the plasma compared to pentoxifylline [1]: more slowly cleared
% Difference in Ave. AUC (deuterated vs nondeuterated species) (in vivo): +80%
% Difference in Ave. Cmax (deuterated vs nondeuterated species) (in vivo): +57%
AUC (in vivo; 2.5 mg/kg): 811 ng·h/mL
Cmax (in vivo; 2.5 mg/kg): 1230 ng/mL
Amount of (S)-M1 type metabolite (Compound 419(S)) formed from keto-compound, compared to (S)-M1 formed from pentoxifylline ([2]; approximately 2 hours, FIG. 3 columns A and B): similar
Amount of (S)-M1 type metabolite (Compound 419(S)) formed from keto-compound, compared to (S)-M1 formed from pentoxifylline [3]: similar

[2H]c1nc2c(c(=O)n(CCCC([2H])([2H])C(=O)C([2H])([2H])[2H])c(=O)n2C([2H])([2H])[2H])n1C([2H])([2H])[2H] [Compound 413, 8-d1-3,7-Di(methyl-d3)-1-(4,4,6,6,6-d5-5-oxohexyl)-1H-purine-2,6(3H,7H)-dione]
% Difference in Ave. AUC (deuterated vs nondeuterated species) [4]: +74%
% Difference in Ave. Cmax (deuterated vs nondeuterated species) [4]: +47%

[2H]c1nc2c(c(=O)n(CCCC([2H])([2H])[C@]([2H])(O)C([2H])([2H])[2H])c(=O)n2C)n1C([2H])([2H])[2H] [Compound 435(R), (R)-8-d1-1-(4,4,5,6,6,6-d6-5-Hydroxyhexyl)-3-methyl-7-(methyl-d3)-1H-purine-2,6(3H,7H)-dione]
Keto-compound (pentoxifylline or Compound 409) formed from M-1 alcohol [2]: not detected
